Source: patent publication US12692273B2, “p53 modulators and uses thereof” (The Regents of the University of California, priority 2019, dated 2026)
Where “and” joins values, the source holds several entries; their conditions need not be identical. Identical values can stand only once. Entries after “also recorded” stand apart in the source; their conditions may differ.

Key:
p53 Y220C [1] = molecular target: T1, p53 Y220C (Homo sapiens, UniProt P04637, C124S/C182S/C229S/C275S/C277S/M133L/N239Y/N268D/Y220C); test: Thermal stability assay (differential scanning fluorimetry) of p53 Y220C covalent adducts; format: binding; details: for Tm: p53 Y220C-compound adduct, p53 Y220C alone 33.0, p53 WT 41.5; for Δ Tm (thermal shift, stabilization of Y220C): relative to p53 Y220C alone
T1 construct: Human p53 WT, R273C, and Y220C (residues 94-312,; 6xHIS (TEV-cleavable) (cleaved yes); made in house; host or cells: E. coli BL21(DE3)
Description: We synthesized a series of compounds, covalently labelled recombinant p53 (Y220C) with the compound, and performed differential scanning fluorimetry (DSF) assay to determine Tm relative to Y220C alone. We tested our lead compounds with the largest increase in Tm in homozygous p53 (Y220C) cell lines BxPC-3 and HCC1419 to determined how the covalent molecules alter p53 target gene expression. p53 WT MCF10A and p53 null Calu-1 cells were used as controls. The cell panel was treated with concentrations of compound ranging 100 nM-10 μM for 4 hr, 24 hr, and 48 hr. DMSO was used as a negative control, KG2 as a positive control, and Nutlin-3a as a positive control for p53 WT (FIG. 3D). We determined the differences in p53 target gene activation by performing qPCR on CDKN1A, MDM2, PUMA, BAX, NOXA, and used GAPDH as a negative control. We also performed a western blot on p53, p21, MDM2, and actin as a control to monitor the expected increase in protein levels of p21 and MDM2 protein. […] We immunoprecipitated p53 Y220C from the compound treated cell panel with Pab240 or IgG control, and western blot for p53 to determine the relative rescue of the native fold compared to DMSO treated cells.
(§1) Recombinant protein expression. Human p53 WT, R273C, and Y220C (residues 94-312, (C124S, M133L, C182S, C229S, N239Y, N268D, C275S, C277S) were expressed as 6×HIS fusion proteins in E. coli BL21(DE3). Lysates were first purified by Ni Sepharose High Performance (GE Healthcare) affinity chromatography. Proteins were then eluted from the resin and subject to Heparin (GE Healthcare) affinity chromatography. The elution fraction was then subjected to TEV protease cleavage overnight in 50 mM HEPES, 200 mM NaCl, and 1 mM DTT (pH 7.0). The protein was then passed over Heparin affinity resin again to remove free 6×HIS and TEV protease, concentrated, and stored in a buffer containing 50 mM HEPES, 200 mM NaCl, and 20% glycerol (pH 7.0).
Thermal Stability Assays. The thermal denaturation of p53 was monitored using fluorescence-based differential scanning fluorimetry assay. Purified p53 was incubated with excess covalent ligand overnight at 4° C. and purified by gel-filtration into 50 mM HEPES, 100 mM NaCl, and 15% glycerol (pH 7.0). 5 μM protein was prepared in assay buffer 50 mM HEPES and 100 mM NaCl (pH 7.0) with 2×SYPRO Orange (ThermoFisher). The plate was heated from 15° C. to 65° C. at a rate of 0.5° C./min. The fluorescence intensity was monitored at Ex/Em: 492/610 nm.

BxPC-3 (Y220C) cells = test: Western blot of p21 and p53 in BxPC-3 (Y220C) cells; format: cell-based, human
Description: (§2) This is exciting preliminary evidence of successful re-animation of p53 (Y220C) with our lead compound KG2.
We have successfully synthesized several PEG linked versions of JQ1-KG1 bivalent molecules. We also treated BxPC-3 cells with free KG1 and JQ1 compounds as additional controls. We have performed western blots on p53, p21 and actin as a control (FIG. 4C).
(§3) Western blots and antibodies. Whole-cell extracts from MCF10A (Gift from Prof. Sourav Bandyopadhyay, UCSF), BxPC-3 (ATCC, CRL-1687), Calu-1 (ATCC, HTB-54) were prepared by lysing cells with lysis buffer containing 50 mM HEPES, 150 mM NaCl, 1 mM DTT, 10% glycerol, and 1% NP-40 (pH 7.0) in the presence of 1×cOmplete EDTA-free protease inhibitor cocktail (Roche). Whole-cell extracts were combined with 2×SDS-loading buffer for western blot analysis.
(§4) Western blots were performed with 10 μg protein and were resolved by SDS-PAGE on 4-12% BT gels (Invitrogen) at 150 V for 1 hr in MES buffer and transferred to nitrocellulose membranes, which were then incubated with primary antibodies at 4° C. overnight, followed by incubation with LI-COR IRDye anti-mouse and anti-rabbit secondary antibodies at room temperature for 1 hr. Bands were imaged on a LI-COR Odyssey scanner.
(§5) Antibodies for western blot detection were as follows: p53 (DO-1, SCBT), actin (8H10D10, CST), Rb phosS807/811 (85165, CST), and p21 (SX118, SCBT).

p53 Y220C [2] = molecular target: T1, p53 Y220C; test: LC-MS analysis of p53 Y220C covalent labeling; format: binding; details: for label and reactivate p53 Y220C: recombinant protein and patient derived cell-lines; for covalent labeling of p53 (Y220C): recombinant protein, Cys-220
Description: as §1
LC-MS analysis of p53 Y220C covalent labeling. Recombinant p53 Y220C (1 μM) in buffer containing 50 mM HEPES and 150 mM NaCl (pH 7.0) was treated with covalent compounds. The extent of covalent labeling was assessed by LC-MS (Waters Xevo G2-XS QTof, ACQUITY UPLC Protein BEH C4 Column, 300 Å, 1.7 μm, 2.1 mm×50 mm). Deconvolution of multiply charged ions was performed using Waters MassLynx software (version 4.1).

Calu-1 (null) cells = test: Western blot of p21 in Calu-1 (p53 null) cells; format: cell-based, human; details: Calu-1, p53 null setting
Description: as §2, §3, §4, §5

Row | Structure (SMILES) | Tm (p53 Y220C [1]; DSF) | Δ Tm (thermal shift, stabilization of Y220C) (p53 Y220C [1]) [°C] | p21 induction (Western blot) (BxPC-3 (Y220C) cells; BxPC-3 (p53 Y220C) cells) | label and reactivate p53 Y220C (p53 Y220C [2]) | covalent labeling of p53 (Y220C) (p53 Y220C [2]) | further results
1 | C=CC(=O)n1cc(C=O)c2ccccc21 [KG37] | 34.5 °C | 1.5 | – | – | – | –
2 | C=CC(=O)n1c2ccccc2c2cc(C(=O)NCCOCCOCCOCCOCCNC(=O)C[C@@H]3N=C(c4ccc(Cl)cc4)c4c(sc(C)c4C)-n4c(C)nnc43)ccc21 [JQ1PEG4KG1] | – | – | strongly induce p21 | – | – | target p53 (Y220C) engagement (higher MW shift of p53 band) (BxPC-3 (Y220C) cells; BxPC-3 cells, Western blot): evidence of target p53 (Y220C) engagement; cell death (lower actin staining) (BxPC-3 (Y220C) cells; BxPC-3 cells, higher concentrations, 24 hours): extensive cell death
3 | C#CCNC(=O)c1cn(C(=O)C=C)c2ccccc12 [KG2] | – | – | activation of p21 expression in Y220C cells to the same level as nutlin in WT p53 cells | label and reactivate | labels p53 (Y220C) | active concentration for p21 activation (BxPC-3 (Y220C) cells; BxPC-3 (p53 Y220C) cells): active at μM concentrations; p21 induction (Western blot) (Calu-1 (null) cells): does not show induction of p21
4 | C=CC(=O)n1c2ccccc2c2cc(C=O)ccc21 [KG1] | 35 °C and 34.5 °C | 1.5 | little or no effects | label and reactivate | reacts with p53 (Y220C); also recorded: covalently labels | –
5 | C=C(CC)C(N)=O [2-Ethylacrylamide] | – | – | – | – | – | stabilization of Y220C (in words) (p53 Y220C [1]; DSF, in the assay tested): did not stabilize
6 | Cc1sc2c(c1C)C(c1ccc(Cl)cc1)=N[C@@H](CC(=O)OC(C)(C)C)c1nnc(C)n1-2 [JQ1, (S)-tert-butyl 2-(4-(4-chlorophenyl)-2,3,9-trimethyl-6H-thieno[3,2-f][1,2,4]triazolo[4,3-a][1,4]diazepin-6-yl)acetate, reference compound] | – | – | modest activation of p21 | – | – | –
